Source: ChEMBL document CHEMBL1201862, “PubChem BioAssay data set” (2004)
Active and inactive are the calls of the source.

Columns and labels:
[1] = target: Sphingosine 1-phosphate receptor 1 (Homo sapiens, UniProt P21453); test: Fluorescence-based counterscreen assay for S1P4 agonists: Cell-based dose response high throughput screening assay to identify agonists of the Sphingosine 1-Phosphate Receptor 1 (S1P1). [Related pubchem assays (depositor defined):AID1509, AID1523, AID1801, AID463107, AID463118, AID463119, AID463122, AID463123, AID463129, AID463225, AID504400, AID504460]; format: functional
Sphingosine 1-phosphate receptor 1, sequence (P21453 whole entry): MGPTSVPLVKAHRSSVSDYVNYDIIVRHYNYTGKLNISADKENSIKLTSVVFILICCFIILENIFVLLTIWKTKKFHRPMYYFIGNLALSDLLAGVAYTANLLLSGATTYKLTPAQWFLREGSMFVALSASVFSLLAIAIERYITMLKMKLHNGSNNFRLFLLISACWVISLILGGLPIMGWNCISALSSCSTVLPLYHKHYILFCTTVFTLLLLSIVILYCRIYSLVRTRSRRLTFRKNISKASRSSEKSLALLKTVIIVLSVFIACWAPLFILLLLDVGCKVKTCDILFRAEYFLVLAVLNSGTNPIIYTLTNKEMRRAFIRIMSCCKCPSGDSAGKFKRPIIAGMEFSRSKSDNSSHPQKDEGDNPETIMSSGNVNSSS

[2] = target: Sphingosine 1-phosphate receptor 2 (Homo sapiens, UniProt O95136); test: Dose Response Cell Based Assay for Agonists of the S1P2 Receptor. [Related pubchem assays: 729, 736, 843 ]; format: functional
Sphingosine 1-phosphate receptor 2, sequence (O95136 whole entry): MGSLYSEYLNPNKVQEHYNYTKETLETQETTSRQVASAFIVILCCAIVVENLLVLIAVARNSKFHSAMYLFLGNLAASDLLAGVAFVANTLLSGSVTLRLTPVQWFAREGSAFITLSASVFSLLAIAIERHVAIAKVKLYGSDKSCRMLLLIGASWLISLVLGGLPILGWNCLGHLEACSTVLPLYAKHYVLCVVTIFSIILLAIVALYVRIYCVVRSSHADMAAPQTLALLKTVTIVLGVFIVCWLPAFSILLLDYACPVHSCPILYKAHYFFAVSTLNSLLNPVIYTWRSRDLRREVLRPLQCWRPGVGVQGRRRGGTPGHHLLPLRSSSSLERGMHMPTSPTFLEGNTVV

[3] = viability of PTEN-deleted HCT116 cells – cell-based, HCT116 PTEN knockout, dose response (AID 1047); format: functional;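 also: HCT116 colon tumor cells with PTEN knocked out; cells exposed to compound for 60 hours before readout; potency for loss of cell viability measured by luminescence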
[4] = viability loss in Vero cells – cytotoxicity control for Vif-APOBEC3G degradation inhibitor project, dose response (AID 1117358); format: functional; settings: Vero
Streptococcus = test: GAS UMAA2166 growth inhibition – luminescence, BacTiterGlo, counter-screen for streptokinase expression inhibitor project, dose response (AID 1915); format: functional, organism-based;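 also: potency for reduction of bacterial viability or growth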
Streptokinase A = target: T1, Streptokinase A (Streptococcus pyogenes serotype M1, UniProt P10520); test: viability-normalized secreted streptokinase activity reduction – plasminogen activation absorbance, OD405, dose response (AID 1914); format: functional, Streptococcus pyogenes M1 GAS;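 also: secreted streptokinase activity via plasminogen activation per viability signal from cell pellet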
T1 sequence (P10520 whole entry): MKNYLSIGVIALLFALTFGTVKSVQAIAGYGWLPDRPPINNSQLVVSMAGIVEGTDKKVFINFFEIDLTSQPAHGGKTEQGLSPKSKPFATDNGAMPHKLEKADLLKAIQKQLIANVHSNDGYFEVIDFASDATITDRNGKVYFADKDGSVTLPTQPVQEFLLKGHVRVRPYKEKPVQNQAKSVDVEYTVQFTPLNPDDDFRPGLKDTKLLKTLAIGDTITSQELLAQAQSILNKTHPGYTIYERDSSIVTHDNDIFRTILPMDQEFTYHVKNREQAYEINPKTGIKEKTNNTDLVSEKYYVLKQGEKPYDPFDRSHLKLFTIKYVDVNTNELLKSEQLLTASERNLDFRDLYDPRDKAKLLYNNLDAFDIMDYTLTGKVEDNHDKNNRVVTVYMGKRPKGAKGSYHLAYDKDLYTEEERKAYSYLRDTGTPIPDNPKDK

[5] = viability of HCT116 lacking mutant beta-catenin – cell-based, human colon tumor, dose response (AID 1045); format: functional;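 also: HCT116 colon tumor cells with beta catenin knocked out; cells exposed to compound for 60 hours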
[6] = target: T2, Sphingosine 1-phosphate receptor 4 (Homo sapiens, UniProt O95977); test: Fluorescence dose response cell-based high throughput screening assay for agonists of the Sphingosine 1-Phosphate Receptor 4 (S1P4). [Related pubchem assays: 1509 (Primary screen.), 1523 (Confirmation screen in triplicates.)]; format: functional
T2 sequence (O95977 whole entry): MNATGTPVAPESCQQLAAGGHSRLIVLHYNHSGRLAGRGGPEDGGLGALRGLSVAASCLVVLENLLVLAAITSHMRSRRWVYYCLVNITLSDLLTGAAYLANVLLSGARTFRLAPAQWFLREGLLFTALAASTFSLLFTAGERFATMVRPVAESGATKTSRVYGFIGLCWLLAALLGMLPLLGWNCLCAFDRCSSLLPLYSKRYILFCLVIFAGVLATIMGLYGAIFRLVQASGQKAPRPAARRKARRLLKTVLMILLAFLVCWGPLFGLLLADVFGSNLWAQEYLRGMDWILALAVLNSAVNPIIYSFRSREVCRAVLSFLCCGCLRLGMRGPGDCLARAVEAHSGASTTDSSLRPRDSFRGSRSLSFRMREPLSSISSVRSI

[7] = system: Streptococcus sp. 'group A'; test: Streptococcus pyogenes SK(-)GAS viability under kanamycin – luminescence, BacTiterGlo, confirmation, counter-screen for streptokinase expression inhibitor project, dose response (AID 1900); format: functional, organism-based
Protein Tat = target: T3, Protein Tat (Human immunodeficiency virus type 1 group M subtype B (isolate HXB2)(HIV-1), UniProt P04608); format: functional;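 also: tat binding to TAR RNA read out by fluorescence polarization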
T3 sequence (P04608 whole entry): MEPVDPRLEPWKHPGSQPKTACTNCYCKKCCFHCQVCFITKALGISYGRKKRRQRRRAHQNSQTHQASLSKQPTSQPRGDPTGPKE

[8] = target: Neurotensin receptor type 1 (Homo sapiens, UniProt P30989); format: functional;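 also: Image-based confirmatory dose-response assay measuring agonist activity at NTR1; NTR1-expressing U2OS osteosarcoma cells imaged for beta-arrestin GFP spot formation; agonist potency where compounds increase beta-arrestin recruitment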
Neurotensin receptor type 1, sequence (P30989 whole entry): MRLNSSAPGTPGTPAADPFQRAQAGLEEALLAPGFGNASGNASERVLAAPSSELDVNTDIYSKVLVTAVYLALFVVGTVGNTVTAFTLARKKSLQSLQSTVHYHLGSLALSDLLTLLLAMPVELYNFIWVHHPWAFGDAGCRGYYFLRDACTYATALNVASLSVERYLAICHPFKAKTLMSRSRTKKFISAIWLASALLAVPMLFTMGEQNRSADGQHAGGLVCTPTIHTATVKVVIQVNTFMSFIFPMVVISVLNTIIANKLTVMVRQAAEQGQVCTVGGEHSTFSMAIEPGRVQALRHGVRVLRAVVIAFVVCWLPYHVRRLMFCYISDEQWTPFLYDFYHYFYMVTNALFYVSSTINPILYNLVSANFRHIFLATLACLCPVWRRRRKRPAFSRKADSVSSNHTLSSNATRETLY

Vero = test: cells; format: functional; settings: Chlorocebus sabaeus
[9] = target: T4, Ubiquitin-conjugating enzyme E2 N (Homo sapiens, UniProt P61088); format: functional
T4 sequence (P61088 whole entry): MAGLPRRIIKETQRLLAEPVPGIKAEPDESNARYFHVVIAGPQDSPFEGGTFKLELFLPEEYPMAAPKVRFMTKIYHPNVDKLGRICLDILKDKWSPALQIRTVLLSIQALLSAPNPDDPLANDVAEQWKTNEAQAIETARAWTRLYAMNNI

[10] = target: T4, Ubiquitin-conjugating enzyme E2 N; format: functional; remark: listed apart in the source
Bcl-2-related protein A1 = target: T5, Bcl-2-related protein A1 (Mus musculus, UniProt Q07440); format: functional;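 also: confirmatory dose–response counterscreen on Bfl-1, used to check hits from a UBC13 polyubiquitin inhibitor campaign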
T5 sequence (Q07440 whole entry): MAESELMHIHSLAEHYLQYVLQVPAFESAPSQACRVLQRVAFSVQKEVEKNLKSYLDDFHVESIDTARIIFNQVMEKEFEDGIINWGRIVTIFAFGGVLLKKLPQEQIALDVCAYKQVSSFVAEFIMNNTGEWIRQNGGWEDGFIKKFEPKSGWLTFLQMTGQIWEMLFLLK

SMILES | EC50 [1] | EC50 [2] | EC50 [3] | CC50 [4] | EC50 (Streptococcus) | EC50 (Streptokinase A) | EC50 [5] | EC50 [6] | EC50 [7] | IC50 (Protein Tat) | EC50 [8] | CC50 (Vero) | IC50 [9] | IC50 [10] | IC50 (Bcl-2-related protein A1)
NS(=O)(=O)c1ccc(N2N=C(c3ccc(Br)cc3)CC2c2ccc(F)cc2)cc1 (stereo not given) | 2.2 µM (active) | 0.877 µM (active) | 14.1 µM (active) | > 40 µM (active) | 5.44 µM (active) | > 150 µM (not active) | 15.4 µM (active) | 3.33 µM (active) | 2.62 µM (active) | > 100 µM (active) | 25 µM (inactive) | 17.1 µM (active) |  |  | 
CCCCN(CC)CCNC(=O)c1cc2c(=O)n(CC)c3ccccc3c2s1 |  |  |  |  |  |  |  |  |  |  |  |  | 5.26 µM (active) | 18.1 µM (active) | > 20 µM (inactive)
